Measured values published in the NIST ThermoML archive (doi:10.1021/je801006q).

Key:
[1] = xn = mol fraction of the nth substance listed; settings: 101 kPa, Liquid
[2] = excess molar enthalpy (molar enthalpy of mixing); xn = mol fraction of the nth substance listed; settings: 298.15 K, 101 kPa, Liquid, Calvet calorimetry
[3] = 101.33 kPa, Liquid

O=C1CCCN1 [2-pyrrolidinone] + CC(C)(C)O
[1]
Settings | mass density, 293.15 K [kg/m3] | mass density, 298.15 K [kg/m3] | mass density, 303.15 K [kg/m3] | viscosity, 293.15 K [mPa·s] | viscosity, 298.15 K [mPa·s] | viscosity, 303.15 K [mPa·s]
x1 = 0.0786 | 806.96 | 802 | 797.13 | 4.778 | 3.771 | 3.586
x1 = 0.1832 | 836.27 | 831.45 | 826.69 | 3.931 | 3.23 | 2.732
x1 = 0.2489 | 855.32 | 850.57 | 845.86 | 3.399 | 2.698 | 2.053
x1 = 0.3105 | 873.59 | 868.94 | 864.29 | 2.824 | 2.109 | 1.481
x1 = 0.3875 | 897.03 | 892.52 | 887.93 | 2.167 | 1.547 | 0.786
x1 = 0.4556 | 918.3 | 913.93 | 909.39 | 1.857 | 1.333 | 0.464
x1 = 0.5003 | 932.55 | 928.28 | 923.8 | 1.665 | – | –
x1 = 0.5734 | 956.36 | 952.27 | 947.87 | 1.87 | 1.496 | –
x1 = 0.6544 | 983.51 | 979.59 | 975.32 | 2.478 | 2.049 | 1.049
x1 = 0.7236 | 1007.36 | 1003.63 | 999.49 | 3.648 | 3.252 | 2.12
x1 = 0.7995 | 1034.28 | 1030.79 | 1026.74 | 5.671 | 5.011 | 3.681
x1 = 0.8672 | 1059.06 | 1055.73 | 1051.83 | 8.035 | 7.463 | 5.849
x1 = 0.9237 | 1080.26 | 1077.13 | 1073.37 | 10.94 | 9.609 | 8.042
x1 = 0.9823 | 1102.87 | 1099.95 | 1096.31 | 14.34 | 12.12 | 9.894

[2]
Settings | excess molar enthalpy [kJ/mol]
x1 = 0.0498 | 0.144
x1 = 0.1189 | 0.244
x1 = 0.1932 | 0.322
x1 = 0.2551 | 0.377
x1 = 0.3309 | 0.425
x1 = 0.3946 | 0.445
x1 = 0.4411 | 0.444
x1 = 0.4943 | 0.432
x1 = 0.5766 | 0.396
x1 = 0.6806 | 0.339
x1 = 0.7422 | 0.287
x1 = 0.8435 | 0.173
x1 = 0.9312 | 0.107

CC(C)CO [2-methyl-1-propanol]
[3]
Settings | mass density [kg/m3] | viscosity [mPa·s]
293.15 K | 801.28 | 3.943
298.15 K | 797.74 | 3.332
303.15 K | 794.32 | 2.884

CC(C)(C)O [2-methylpropan-2-ol]
[3]
Settings | mass density [kg/m3] | viscosity [mPa·s]
293.15 K | 795.68 | 5.486
298.15 K | 780.65 | 4.436
303.15 K | 775.76 | 3.378

O=C1CCCN1 [2-pyrrolidinone]
[3]
Settings | mass density [kg/m3] | viscosity [mPa·s]
293.15 K | 1109.84 | 15.84
298.15 K | 1106.98 | 13.07
303.15 K | 1103.38 | 10.69

O=C1CCCN1 [2-pyrrolidinone] + CCC(C)O
[1]
Settings | mass density, 293.15 K [kg/m3] | mass density, 298.15 K [kg/m3] | mass density, 303.15 K [kg/m3] | viscosity, 293.15 K [mPa·s] | viscosity, 298.15 K [mPa·s] | viscosity, 303.15 K [mPa·s]
x1 = 0.0995 | 831.58 | 828.13 | 824.55 | 3.409 | 2.829 | 2.3
x1 = 0.1675 | 849.93 | 846.53 | 842.94 | 3.108 | 2.409 | 1.896
x1 = 0.2444 | 871.14 | 867.8 | 864.23 | 3.034 | 2.443 | 1.707
x1 = 0.2996 | 886.73 | 883.42 | 879.83 | 2.84 | 2.461 | 1.724
x1 = 0.3945 | 914.18 | 910.92 | 907.3 | 2.982 | 2.561 | 1.834
x1 = 0.4531 | 931.54 | 928.3 | 924.68 | 3.084 | 2.698 | 2.068
x1 = 0.4967 | 944.64 | 941.43 | 937.81 | 3.237 | 2.856 | 2.348
x1 = 0.5546 | 962.32 | 959.15 | 955.53 | 3.668 | 3.241 | 2.702
x1 = 0.6402 | 989.06 | 985.96 | 982.36 | 4.673 | 4.125 | 3.405
x1 = 0.7126 | 1012.23 | 1009.19 | 1005.62 | 5.995 | 5.238 | 4.304
x1 = 0.7895 | 1037.38 | 1034.41 | 1030.84 | 7.928 | 6.821 | 5.519
x1 = 0.8438 | 1055.57 | 1052.66 | 1049.12 | 9.691 | 8.277 | 6.842
x1 = 0.9096 | 1078.09 | 1075.19 | 1071.64 | 11.74 | 10.1 | 8.162
x1 = 0.9767 | 1101.54 | 1098.73 | 1095.14 | 14.73 | 12.47 | 10.15

[2]
Settings | excess molar enthalpy [kJ/mol]
x1 = 0.0555 | 0.169
x1 = 0.1212 | 0.278
x1 = 0.1842 | 0.344
x1 = 0.2443 | 0.389
x1 = 0.3301 | 0.413
x1 = 0.3903 | 0.417
x1 = 0.4444 | 0.404
x1 = 0.4998 | 0.385
x1 = 0.5887 | 0.337
x1 = 0.6799 | 0.278
x1 = 0.7389 | 0.236
x1 = 0.8478 | 0.155
x1 = 0.9309 | 0.0899
